Assay results from publication PMC5693244 (European journal of medicinal chemistry, 2017).
Values belong to the compound of their own block, whether it stands above or below them.

Assays:
h-FPR2 [1] = target: T1, h-FPR2 (Homo sapiens, UniProt P25090); conditions: previously characterized; ref [33]; cited from earlier work
T1 sequence (P25090 1-351): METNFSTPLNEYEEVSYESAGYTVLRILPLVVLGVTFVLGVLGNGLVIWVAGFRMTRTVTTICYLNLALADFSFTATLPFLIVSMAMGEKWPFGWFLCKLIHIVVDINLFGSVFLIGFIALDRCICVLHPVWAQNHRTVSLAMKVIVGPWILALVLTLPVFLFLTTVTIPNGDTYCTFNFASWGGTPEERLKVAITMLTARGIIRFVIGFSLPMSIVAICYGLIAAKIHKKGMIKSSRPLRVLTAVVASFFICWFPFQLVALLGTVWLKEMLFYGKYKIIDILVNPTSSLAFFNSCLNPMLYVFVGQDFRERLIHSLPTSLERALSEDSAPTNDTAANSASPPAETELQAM

[2] = Stability assays in rat liver microsomes; assay type: in vitro ADME; conditions: pH 7.4, Metabolic stability (% remaining), percent of parent compound remaining after 30-min incubation
h-FPR2 [3] = target: T1, h-FPR2; assay: Ca2+ mobilization in FPR2-HL60 transfected cells; assay type: cell-based; conditions: for EC50, μM FPR2-HL60 / Agonist character (full/partial) at FPR2: Ca2+ mobilization; for EC50, μM FPR2-HL60: FPR2-HL60 cells
[4] = test system: NO production in rat microglial cell cultures; assay: NO release assay; assay type: cell-based; conditions: for Effect on LPS-increased NO level: LPS-stimulated, (S)-10 at 5 μM and 10 μM; for Effect on NO level: basal conditions
[5] = test system: TNF-α production in rat microglial cell cultures; assay: TNF-α ELISA in rat microglial cell cultures; assay type: cell-based; conditions: for Effect on LPS-evoked TNF-α production / Block by WRW4 of effect on TNF-α: LPS-stimulated; for Effect on LPS-evoked TNF-α production: 0.5 to 10 μM; for Effect on TNF-α production: basal conditions, agonists 0.5 μM-10 μM; for Block by WRW4 of effect on TNF-α: pre-treatment with FPR2 antagonist WRW4
[6] = test system: rat primary microglial cells; assay: MTT cell viability test in rat primary microglial cell cultures; assay type: cell-based; conditions: for Effect on metabolic activity (MTT) / Effect on conversion of MTT dye: basal conditions; for Effect on metabolic activity (MTT): 0.5–10 μM, 24 h; for Effect on conversion of MTT dye: 50 μM
hCMEC/D3 cells = assay: Bidirectional transport across hCMEC/D3 cell monolayer; assay type: in vitro ADME, human; conditions: 100 μM, 2 h; for PappAB: apical-to-basolateral transport; for PappBA: basolateral-to-apical transport
[7] = test system: IL-1β production in rat microglial cell cultures; assay: IL-1β ELISA in rat microglial cell cultures; assay type: cell-based; conditions: for Effect on LPS-evoked IL-1β production / Block by WRW4 of effect on IL-1β: LPS-stimulated; for Effect on LPS-evoked IL-1β production: 0.5 to 10 μM; for Block by WRW4 of effect on IL-1β: pre-treatment with FPR2 antagonist WRW4; for Effect on IL-1β production: basal conditions, agonists 0.5 μM-10 μM
[8] = test system: rat primary microglial cells; assay: Lactate dehydrogenase; assay type: cell-based; conditions: for Effect on LPS-induced cell death (LDH release): LPS-stimulated, pre-treatment 1 μM and 5 μM; for Effect on LDH release (cell death) / Effect on LDH release: basal conditions; for Effect on LDH release (cell death): 50 μM; for Effect on LDH release: 0.5–10 μM, 24 h
human neutrophils = assay: Ca2+ mobilization in human neutrophils; assay type: cell-based
h-FPR1 = target: T2, h-FPR1 (Homo sapiens, UniProt P21462); assay: Ca2+ mobilization in FPR1-HL60 transfected cells; assay type: cell-based
T2 sequence (P21462 1-350): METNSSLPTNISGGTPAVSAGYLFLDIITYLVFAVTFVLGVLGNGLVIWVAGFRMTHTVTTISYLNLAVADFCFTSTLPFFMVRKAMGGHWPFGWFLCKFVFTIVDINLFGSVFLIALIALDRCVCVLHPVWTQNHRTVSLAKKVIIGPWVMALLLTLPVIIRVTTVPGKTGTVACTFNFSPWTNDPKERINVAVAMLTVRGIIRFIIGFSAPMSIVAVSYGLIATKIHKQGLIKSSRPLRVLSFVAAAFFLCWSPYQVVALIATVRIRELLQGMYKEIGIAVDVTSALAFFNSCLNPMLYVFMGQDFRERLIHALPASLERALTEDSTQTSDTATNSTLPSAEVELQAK

[9] = Bidirectional transport across hCMEC/D3 cell monolayer; assay type: in vitro ADME, human; conditions: human

SMILES: O=C(Nc1ccc([N+](=O)[O-])cc1)N[C@H](Cc1c[nH]c2ccccc12)C(=O)NCC1(c2ccccc2)CC1 [(R)-6]
Interaction with FPR2 (intrinsic activity) (h-FPR2 [1]): weak FPR2 antagonist

SMILES: N#Cc1ccc(C[C@@H](NC(=O)Nc2ccc([N+](=O)[O-])cc2)C(=O)NCC2(c3ccccc3)CC2)cc1 [(R)-10, (R)-3-(4-Cyanophenyl)-2-[3-(4-nitrophenyl)ureido]-N-[(1-phenylcyclopropyl)methyl]propanamide]
Agonist character (full/partial) at FPR2 (h-FPR2 [3]): full agonists

SMILES: O=C(Nc1ccc([N+](=O)[O-])cc1)N[C@H](Cc1cccnc1)C(=O)NCC1(c2ccccc2)CC1 [(R)-11, (R)-2-[3-(4-Nitrophenyl)ureido]-N-[(1-phenylcyclopropyl)methyl]-3-(3-pyridinyl)-propanamide]
Effect on LPS-increased NO level [4]: no effect was observed
Effect on NO level [4]: did not induce any change in NO level
Effect on LPS-evoked TNF-α production [5]: effectively decrease LPS-evoked cytokine production
Effect on TNF-α production [5]: did not induce any change
Effect on metabolic activity (MTT) in LPS-stimulated cells [6]: no effect was observed on metabolic activity
Effect on metabolic activity (MTT) [6]: None of the compounds induced significant effects
PappAB (hCMEC/D3 cells): 119245 nm/s
PappBA (hCMEC/D3 cells): 437544 nm/s
Effect on LPS-evoked IL-1β production [7]: effectively decrease LPS-evoked cytokine production
Block by WRW4 of effect on IL-1β [7]: able to block the effect
Effect on IL-1β production [7]: did not induce any change
Effect on LPS-induced cell death (LDH release) [8]: effectively blocked LPS-induced cell death processes
Effect on LDH release (cell death) [8]: significant increase in death processes
Effect on LDH release [8]: None of the compounds induced significant effects
Agonist character (full/partial) at FPR2 (h-FPR2 [3]): partial agonists
EC50, μM Neutrophils (human neutrophils): submicromolar range

SMILES: Cc1ccc(C2(CNC(=O)[C@@H](Cc3ccc(C#N)cc3)NC(=O)Nc3ccc(F)cc3)CC2)cc1F [(R)-15, (R)-3-(4-Cyanophenyl)-N-[[1-(3-fluoro-4-methylphenyl)cyclopropyl]methyl]-2-[3-(4-fluorophenyl)ureido]propanamide]
remaining at 0.5 h, 10 μM [2]: > 20%

SMILES: COc1ccc(NC(=O)N[C@H](Cc2ccc(C#N)cc2)C(=O)NCC2(c3ccc(F)c(Cl)c3)CC2)cc1 [(R)-16, (R)-N-[[1-(3-Chloro-4-fluorophenyl)cyclopropyl]methyl]-3-(4-cyanophenyl)-2-[3-(4-methoxyphenyl)ureido]propanamide]
Agonist character (full/partial) at FPR1 (h-FPR1): potent FPR1 full agonists

SMILES: N#Cc1ccc(C[C@@H](NC(=O)Nc2ccc(F)cc2)C(=O)NCC2(c3ccc(F)c(Cl)c3)CC2)cc1 [(R)-17, (R)-3-(4-Cyanophenyl)-N-[[1-(3-chloro-4-fluorophenyl)cyclopropyl]methyl]-2-[3-(4-fluorophenyl)ureido]propanamide]
remaining at 0.5 h, 10 μM [2]: > 20%

SMILES: N#Cc1ccc(C[C@H](NC(=O)Nc2ccc([N+](=O)[O-])cc2)C(=O)NCC2(c3ccccc3)CC2)cc1 [(S)-10, (S)-3-(4-Cyanophenyl)-2-[3-(4-nitrophenyl)ureido]-N-[(1-phenylcyclopropyl)methyl]propanamide]
Effect on LPS-increased NO level [4]: significantly attenuated
Effect on NO level [4]: did not induce any change in NO level
Effect on LPS-evoked TNF-α production [5]: effectively decrease LPS-evoked cytokine production
Block by WRW4 of effect on TNF-α [5]: did not abolish the observed effect
Effect on TNF-α production [5]: did not induce any change
Effect on metabolic activity (MTT) in LPS-stimulated cells [6]: no effect was observed on metabolic activity
Effect on conversion of MTT dye [6]: decreased the conversion of MTT dye
Effect on metabolic activity (MTT) [6]: None of the compounds induced significant effects
PappBA (hCMEC/D3 cells): 253033 nm/s
Effect on LPS-evoked IL-1β production [7]: effectively decrease LPS-evoked cytokine production
Block by WRW4 of effect on IL-1β [7]: did not abolish the observed effect
Effect on IL-1β production [7]: did not induce any change
Effect on LPS-induced cell death (LDH release) [8]: effectively blocked LPS-induced cell death processes
Effect on LDH release (cell death) [8]: significant increase in death processes
Effect on LDH release [8]: None of the compounds induced significant effects
Agonist character (full/partial) at FPR2 (h-FPR2 [3]): full agonists
Increase in agonist potency compared to (S)-6 (h-FPR2 [3]; FPR2, (S)-10 compared to (S)-6): 10 fold

SMILES: COc1ccc(NC(=O)N[C@@H](Cc2ccc(C#N)cc2)C(=O)NCC2(c3ccc(F)c(Cl)c3)CC2)cc1 [(S)-16, (S)-N-[[1-(3-Chloro-4-fluorophenyl)cyclopropyl]methyl]-3-(4-cyanophenyl)-2-[3-(4-methoxyphenyl)ureido]propanamide]
Agonist character (full/partial) at FPR1 (h-FPR1): potent FPR1 full agonists

SMILES: N#Cc1ccc(C[C@H](NC(=O)Nc2ccc(F)cc2)C(=O)NCC2(c3ccc(F)c(Cl)c3)CC2)cc1 [(S)-17, (S)-3-(4-Cyanophenyl)-N-[[1-(3-chloro-4-fluorophenyl)cyclopropyl]methyl]-2-[3-(4-fluorophenyl)ureido]propanamide]
Effect on LPS-increased NO level [4]: no effect was observed
Effect on NO level [4]: did not induce any change in NO level
Effect on LPS-evoked TNF-α production [5]: effectively decrease LPS-evoked cytokine production
Block by WRW4 of effect on TNF-α [5]: able to block the effect
Effect on TNF-α production [5]: did not induce any change
Effect on metabolic activity (MTT) in LPS-stimulated cells [6]: no effect was observed on metabolic activity
Effect on conversion of MTT dye [6]: decreased the conversion of MTT dye
Effect on metabolic activity (MTT) [6]: None of the compounds induced significant effects
efflux ratio at 2 h, 100 μM [9]: < 3
PappAB (hCMEC/D3 cells): 145521 nm/s
PappBA (hCMEC/D3 cells): 375981 nm/s
Effect on LPS-evoked IL-1β production [7]: effectively decrease LPS-evoked cytokine production
Block by WRW4 of effect on IL-1β [7]: able to block the effect
Effect on IL-1β production [7]: did not induce any change
Effect on LPS-induced cell death (LDH release) [8]: effectively blocked LPS-induced cell death processes
Effect on LDH release (cell death) [8]: significant increase in death processes
Effect on LDH release [8]: None of the compounds induced significant effects
remaining at 0.5 h, 10 μM [2]: > 20%
EC50, μM Neutrophils (human neutrophils): submicromolar range

Results, then the compound that gave them:

remaining at 0.5 h, 10 μM [2]: 4%
EC50, μM FPR2-HL60 (h-FPR2 [3]): not able to induce Ca^2+ mobilization
SMILES: O=C(Nc1ccc(F)cc1)N[C@H](Cc1c[nH]c2ccccc12)C(=O)NCC1(c2ccccc2)CC1 [(R)-8, (R)-2-[3-(4-Fluorophenyl)ureido]-3-(1H-indol-3-yl)-N-[(1-phenylcyclopropyl)methyl]propanamide]

EC50, μM FPR2-HL60 (h-FPR2 [3]): not able to induce Ca^2+ mobilization
SMILES: O=C(Nc1ccccc1)N[C@H](Cc1c[nH]c2ccccc12)C(=O)NCC1(c2ccccc2)CC1 [(R)-9, (R)-3-(1H-Indol-3-yl)-N-[(1-phenylcyclopropyl)methyl]-2-[3-(phenyl)ureido]propanamide]

Agonist character (full/partial) at FPR1 (h-FPR1): full agonist
Agonist character (full/partial) at FPR2 (h-FPR2 [3]): full agonist
SMILES: COc1ccc(NC(=O)N[C@@H](Cc2c[nH]c3ccccc23)C(=O)NCC2(c3ccccc3)CC2)cc1 [(S)-7, (S)-3-(1H-Indol-3-yl)-2-[3-(4-methoxyphenyl)ureido]-N-[(1-phenylcyclopropyl)methyl] propanamide]

Agonist character (full/partial) at FPR2 (h-FPR2 [3]): partial agonists
SMILES: O=C(Nc1ccc(F)cc1)N[C@@H](Cc1c[nH]c2ccccc12)C(=O)NCC1(c2ccccc2)CC1 [(S)-8, (S)-2-[3-(4-Fluorophenyl)ureido]-3-(1H-indol-3-yl)-N-[(1-phenylcyclopropyl)methyl]propanamide]

Agonist character (full/partial) at FPR2 (h-FPR2 [3]): partial agonists
SMILES: O=C(Nc1ccccc1)N[C@@H](Cc1c[nH]c2ccccc12)C(=O)NCC1(c2ccccc2)CC1 [(S)-9, (S)-3-(1H-Indol-3-yl)-N-[(1-phenylcyclopropyl)methyl]-2-[3-(phenyl)ureido]propanamide]

EC50, μM FPR1-HL60 (h-FPR1; FPR1-HL60 cells): low micromolar range
Agonist character (full/partial) at FPR2 (h-FPR2 [3]): partial agonists
SMILES: O=C(Nc1ccc([N+](=O)[O-])cc1)N[C@@H](Cc1cccnc1)C(=O)NCC1(c2ccccc2)CC1 [(S)-11, (S)-2-[3-(4-Nitrophenyl)ureido]-N-[(1-phenylcyclopropyl)methyl]-3-(3-pyridinyl)-propanamide]
